The source of these data is US8796001B2, “Metalloenzyme inhibitor compounds” (Viamet Pharmaceuticals, Inc., priority 2011, dated 2014).

The assay concerns Puccinia recondita tritici = Puccinia triticina (PUCCRT). As to the kind of experiment: Fungicidal activity vs. leaf rust on wheat plants. The assay is classed as in vivo. The following applies: wheat (Yuma) sprayed at 50 ppm, inoculated the following day, rated 7-9 days later, read-out: Puccinia Rating (% Disease Control @ 50 ppm). An excerpt:
D. Evaluation of Fungicidal Activity vs. Leaf Rust (Causal Agent Puccinia Recondita Tritici=Puccinia Triticina; Bayer Code PUCCRT)
Each pot contained 3-8 seedlings. These plants were sprayed until wet with the formulated test compounds. The compounds were formulated at 50 ppm in 10 vol. % acetone plus 90 vol. % Triton X water (deionized water 99.99 wt %+0.01 wt % Triton X100), giving a “formulated test compound.” Formulated test compounds were applied to plants using a turn table sprayer fitted with two opposing air atomization nozzles which delivered approximately 1500 L/ha of spray volume. On the following day, the leaves were inoculated with an aqueous spore suspension of Puccinia recondita tritici and the plants were kept in high humidity overnight to permit spores to germinate and infect the leaf. The plants were then transferred to a greenhouse until disease developed on untreated control plants. Disease severity was evaluated 7-9 days later, depending on the speed of disease development.
In each case of Table 3, the Puccinia rating scale is as follows: […]

With `CC(Oc1ccc(C(F)(F)C(O)(Cn2cnnn2)c2ccc(F)cc2F)nc1)C(F)(F)F` (stereo not shown) [Compound 47, 2-(2,4-Difluorophenyl)-1,1-difluoro-3-(1H-tetrazol-1-yl)-1-(5-((1,1,1-trifluoropropan-2-yl)oxy)pyridin-2-yl)propan-2-ol], the pest or weed control at 50 ppm lay in the range of 80 to 100%.
`OC(Cn1cnnn1)(c1ccc(F)cc1F)C(F)(F)c1ccc(OCc2cccs2)cn1` (stereo not shown) [Compound 49, 2-(2,4-Difluorophenyl)-1,1-difluoro-3-(1H-tetrazol-1-yl)-1-(5-(thiophen-2-ylmethoxy)pyridin-2-yl)propan-2-ol]: the pest or weed control at 50 ppm is 80 to 100%.
The figure for `N#Cc1ccc(COc2ccc(C(F)(F)C(O)(Cn3cnnn3)c3ccc(F)cc3F)nc2)nc1` (stereo not shown) [Compound 50, 6-(((6-(2-(2,4-Difluorophenyl)-1,1-difluoro-2-hydroxy-3-(1H-tetrazol-1-yl)propyl)pyridin-3-yl)oxy)methyl)nicotinonitrile] is 80 to 100%.
The figure for `N#Cc1cccc(COc2ccc(C(F)(F)C(O)(Cn3cnnn3)c3ccc(F)cc3F)nc2)c1` (stereo not shown) [Compound 52, 3-(((6-(2-(2,4-Difluorophenyl)-1,1-difluoro-2-hydroxy-3-(1H-tetrazol-1-yl)propyl)pyridin-3-yl)oxy)methyl)benzonitrile] is 80 to 100%; for `OC(Cn1cnnn1)(c1ccc(Cl)cc1F)C(F)(F)c1ccc(OCC2CC2)cn1` (stereo not shown) [Compound 54, 2-(4-Chloro-2-fluorophenyl)-1-(5-(cyclopropylmethoxy)pyridin-2-yl)-1,1-difluoro-3-(1H-tetrazol-1-yl)propan-2-ol] it is 80 to 100%.
The figure for `N#Cc1ccc(COc2ccc(C(F)(F)C(O)(Cn3cnnn3)c3ccc(Cl)cc3F)nc2)cc1` (stereo not shown) [Compound 55, 4-(((6-(2-(4-Chloro-2-fluorophenyl)-1,1-difluoro-2-hydroxy-3-(1H-tetrazol-1-yl)propyl)pyridin-3-yl)oxy)methyl)benzonitrile] is 80 to 100%; for `N#Cc1ccc(COc2ccc(C(F)(F)C(O)(Cn3cnnn3)c3ccc(F)cc3F)nc2)c(F)c1` (stereo not shown) [Compound 57, 4-(((6-(2-(2,4-Difluorophenyl)-1,1-difluoro-2-hydroxy-3-(1H-tetrazol-1-yl)propyl)pyridin-3-yl)oxy)methyl)-3-fluorobenzonitrile] it is 80 to 100%; for `N#Cc1ccc(F)c(COc2ccc(C(F)(F)C(O)(Cn3cnnn3)c3ccc(F)cc3F)nc2)c1` (stereo not shown) [Compound 59, 3-(((6-(2-(2,4-Difluorophenyl)-1,1-difluoro-2-hydroxy-3-(1H-tetrazol-1-yl)propyl)pyridin-3-yl)oxy)methyl)-4-fluorobenzonitrile] it is 80 to 100%.
For `N#Cc1ccc(COc2ccc(C(F)(F)C(O)(Cn3cnnn3)c3ccc(Cl)cc3F)nc2)nc1` (stereo not shown) [Compound 61, 6-(((6-(2-(4-Chloro-2-fluorophenyl)-1,1-difluoro-2-hydroxy-3-(1H-tetrazol-1-yl)propyl)pyridin-3-yl)oxy)methyl)nicotinonitrile], the pest or weed control at 50 ppm is 80 to 100%.
Turning to `N#Cc1cc(COc2ccc(C(F)(F)C(O)(Cn3cnnn3)c3ccc(F)cc3F)nc2)ccc1F` (stereo not shown) [Compound 65, 5-(((6-(2-(2,4-Difluorophenyl)-1,1-difluoro-2-hydroxy-3-(1H-tetrazol-1-yl)propyl)pyridin-3-yl)oxy)methyl)-2-fluorobenzonitrile], the pest or weed control at 50 ppm was 80 to 100%.
The figure for `N#Cc1cccc(COc2ccc(C(F)(F)C(O)(Cn3cnnn3)c3ccc(F)cc3F)nc2)c1F` (stereo not shown) [Compound 67, 3-(((6-(2-(2,4-Difluorophenyl)-1,1-difluoro-2-hydroxy-3-(1H-tetrazol-1-yl)propyl)pyridin-3-yl)oxy)methyl)-2-fluorobenzonitrile] is 80 to 100%; for `CC(C)COc1ccc(C(F)(F)C(O)(Cn2cnnn2)c2ccc(Cl)cc2F)nc1` (stereo not shown) [Compound 69, 2-(4-Chloro-2-fluorophenyl)-1,1-difluoro-1-(5-isobutoxypyridin-2-yl)-3-(1H-tetrazol-1-yl)propan-2-ol] it is 80 to 100%; for `OC(Cn1cnnn1)(c1ccc(Cl)cc1F)C(F)(F)c1ccc(OCC(F)(F)F)cn1` (stereo not shown) [Compound 71, 2-(4-Chloro-2-fluorophenyl)-1,1-difluoro-3-(1H-tetrazol-1-yl)-1-(5-(2,2,2-trifluoroethoxy)pyridin-2-yl)propan-2-ol] it is 80 to 100%.
Consider `N#Cc1ccc(COc2ccc(C(F)(F)C(O)(Cn3cnnn3)c3ccc(F)cc3F)nc2)s1` (stereo not shown) [Compound 73, 5-(((6-(2-(2,4-Difluorophenyl)-1,1-difluoro-2-hydroxy-3-(1H-tetrazol-1-yl)propyl)pyridin-3-yl)oxy)methyl)thiophene-2-carbonitrile], for which the pest or weed control at 50 ppm was 80 to 100%.
The figure for `OC(Cn1cnnn1)(c1ccc(F)cc1F)C(F)(F)c1ccc(Oc2ccc(C(F)(F)F)cc2)cn1` (stereo not shown) [Compound 75, 2-(2,4-Difluorophenyl)-1,1-difluoro-3-(1H-tetrazol-1-yl)-1-(5-(4-(trifluoromethyl)phenoxy)pyridin-2-yl)propan-2-ol] is 80 to 100%; for `OC(Cn1cnnn1)(c1ccc(F)cc1F)C(F)(F)c1ccc(Oc2ccc(OC(F)(F)F)cc2)cn1` (stereo not shown) [Compound 76, 2-(2,4-Difluorophenyl)-1,1-difluoro-3-(1H-tetrazol-1-yl)-1-(5-(4-(trifluoromethoxy)phenoxy)pyridin-2-yl)propan-2-ol] it is 80 to 100%; for `OC(Cn1cnnn1)(c1ccc(F)cc1F)C(F)(F)c1ccc(Oc2cccc(F)c2)cn1` (stereo not shown) [Compound 77, 2-(2,4-Difluorophenyl)-1,1-difluoro-1-(5-(3-fluorophenoxy)pyridin-2-yl)-3-(1H-tetrazol-1-yl)propan-2-ol] it is 60 to 79%.
For the compound `N#Cc1cccc(Oc2ccc(C(F)(F)C(O)(Cn3cnnn3)c3ccc(F)cc3F)nc2)c1` (stereo not shown) [Compound 78, 3-((6-(2-(2,4-Difluorophenyl)-1,1-difluoro-2-hydroxy-3-(1H-tetrazol-1-yl)propyl)pyridin-3-yl)oxy)benzonitrile], the pest or weed control at 50 ppm lay in the range of 80 to 100%.
The figure for `N#Cc1ccc(Oc2ccc(C(F)(F)C(O)(Cn3cnnn3)c3ccc(Cl)cc3F)nc2)cc1` (stereo not shown) [Compound 79, 4-((6-(2-(4-Chloro-2-fluorophenyl)-1,1-difluoro-2-hydroxy-3-(1H-tetrazol-1-yl)propyl)pyridin-3-yl)oxy)benzonitrile] is 80 to 100%; for `N#Cc1ccc(Oc2ccc(C(F)(F)C(O)(Cn3cnnn3)c3ccc(Cl)cc3F)nc2)cc1F` (stereo not shown) [Compound 81, 4-((6-(2-(4-Chloro-2-fluorophenyl)-1,1-difluoro-2-hydroxy-3-(1H-tetrazol-1-yl)propyl)pyridin-3-yl)oxy)-2-fluorobenzonitrile] it is 80 to 100%.
In the case of `N#Cc1ccc(COc2ccc(C(F)(F)C(O)(Cn3ncnn3)c3ccc(F)cc3F)nc2)cc1` (stereo not shown) [Compound 83, 4-(((6-(2-(2,4-Difluorophenyl)-1,1-difluoro-2-hydroxy-3-(2H-tetrazol-2-yl)propyl)pyridin-3-yl)oxy)methyl)benzonitrile], the pest or weed control at 50 ppm lay within 40 to 59%.
For `OC(Cn1cnnn1)(c1ccc(F)cc1F)C(F)(F)c1ccc(Oc2cccc(Cl)c2)cn1` (stereo not shown) [Compound 84, 1-(5-(3-Chlorophenoxy)pyridin-2-yl)-2-(2,4-difluorophenyl)-1,1-difluoro-3-(1H-tetrazol-1-yl)propan-2-ol], the pest or weed control at 50 ppm is 80 to 100%.
The figure for `COc1cccc(Oc2ccc(C(F)(F)C(O)(Cn3cnnn3)c3ccc(F)cc3F)nc2)c1` (stereo not shown) [Compound 85, 2-(2,4-Difluorophenyl)-1,1-difluoro-1-(5-(3-methoxyphenoxy)pyridin-2-yl)-3-(1H-tetrazol-1-yl)propan-2-ol] is 80 to 100%.
The figure for `OC(Cn1cnnn1)(c1ccc(F)cc1F)C(F)(F)c1ccc(Oc2ccc(F)c(F)c2)cn1` (stereo not shown) [Compound 86, 1-(5-(3,4-Difluorophenoxy)pyridin-2-yl)-2-(2,4-difluorophenyl)-1,1-difluoro-3-(1H-tetrazol-1-yl)propan-2-ol] is 80 to 100%; for `COc1ccc(Oc2ccc(C(F)(F)C(O)(Cn3cnnn3)c3ccc(F)cc3F)nc2)cc1` (stereo not shown) [Compound 87, 2-(2,4-Difluorophenyl)-1,1-difluoro-1-(5-(4-methoxyphenoxy)pyridin-2-yl)-3-(1H-tetrazol-1-yl)propan-2-ol] it is 80 to 100%.
The figure for `OC(Cn1cnnn1)(c1ccc(F)cc1F)C(F)(F)c1ccc(Oc2ccccc2F)cn1` (stereo not shown) [Compound 88, 2-(2,4-Difluorophenyl)-1,1-difluoro-1-(5-(2-fluorophenoxy)pyridin-2-yl)-3-(1H-tetrazol-1-yl)propan-2-ol] is 80 to 100%.
Turning to `N#Cc1ccc(Oc2ccc(C(F)(F)C(O)(Cn3cnnn3)c3ccc(F)cc3F)nc2)c(F)c1` (stereo not shown) [Compound 89, 4-((6-(2-(2,4-Difluorophenyl)-1,1-difluoro-2-hydroxy-3-(1H-tetrazol-1-yl)propyl)pyridin-3-yl)oxy)-3-fluorobenzonitrile], the pest or weed control at 50 ppm is 80 to 100%.
For the compound `OC(Cn1cnnn1)(c1ccc(F)cc1F)C(F)(F)c1ccc(Oc2ncc(C(F)(F)F)cc2Cl)cn1` (stereo not shown) [Compound 92, 1-(5-((3-chloro-5-(trifluoromethyl)pyridin-2-yl)oxy)pyridin-2-yl)-2-(2,4-difluorophenyl)-1,1-difluoro-3-(1H-tetrazol-1-yl)propan-2-ol], the pest or weed control at 50 ppm lay within 80 to 100%.
